From US20220370467A1, “USING OF A PPAR-DELTA AGONIST IN THE TREATMENT OF KIDNEY DISEASE” (Reneo Pharmaceuticals, Inc., priority 2019, published 2022)
Entries after “also recorded” stand apart in the source; their conditions may differ.

Legend:
[1] = test system: human retinoid X receptor (hRXR); assay: human retinoid X receptor activity
[2] = test system: 2K1C rat clipped kidney; settings: cited from earlier work
[3] = test system: B6129S1 hybrid Col4a3−/− mice; assay: Mouse Alport model of kidney fibrosis, Study 1; type: in vivo
Source text: Mice with mutations in one of the collagen IV genes of glomerular basement membrane collagen, Collagen IV-α3/α4/α5, have defects in glomerular function with development of kidney fibrosis. These mice develop renal dysfunction and die prematurely of renal failure with specific timing dependent on the strain background upon which the mutation is present.
Generation of Col4a3^−/−mice was as described in Miner, J. H., and Sanes, J. R. (1996), J. Cell Biol. 135:1403-1413. Studies of Compound 1 efficacy in Alport models of kidney fibrosis were performed using mice on two different strain backgrounds. Study 1 used B 6129S1 F1 hybrid Alport mice that usually reach end stage renal disease (ESRD) at about 17 to 19 weeks. These were generated by crosses between C57BL6/J (B 6) and 129S1/Sv1mJ (129S1) Alport mice. Study 2 used inbred 129S1 Col4a3^−/− mice, which usually reach ESRD at about 11 to 13 weeks.
Study 1—B6129S1 hybrid Col4a3^−/− mice were given administrations via intraperitoneal injection of either vehicle (PBS) or Compound 1 (10 mg/kg) once a day from 6 to 17-weeks of age. There were 12 mice per group. B6129S1 hybrid Col4a3^+/− mice were used as non-disease controls. Compound 1 was dissolved at 2 mg/mL in PBS twice a week. The dosing volume was calculated as body weight (g)*5 μL (e.g. body weight 20 g: 20*5=100 μL).
Urine and blood samples were collected at the time points of 12, 15, and 17-weeks of age for B6129S1 hybrid Col4a3^+/−, −/− mice and at 8 and 10-weeks of age for inbred 129S1 Col4a3^−/− mice. Urinary protein concentration was determined by Bradford assay (Cat. 5000006, Bio-Rad) and comparison with bovine serum albumin standards. Urinary creatinine was measured by QuantiChrom™ Creatinine Assay Kit (Cat.DICT-500, BioAssay systems) and used to normalize the amount of urine. Blood urea nitrogen (BUN) levels were measured by QuantiChrom™ Urea Assay Kit (Cat.DUR2-100, BioAssay systems). Urine and blood samples were stored at −20° C. and −80° C. respectively after collection and subsequently analyzed.
For biochemistry, kidneys were collected from 15 and 17-week old B 6129S1 hybridCol4a3^+/−, −/− mice; and from 8 and 10-week old inbred 129S1 Col4a3^−/− mice. Collected kidneys were quickly frozen by liquid nitrogen and stored at −80° C. Kidneys were minced in cold PBS containing protease inhibitor (Cat. 786-108, G-BIOSCIENCES), centrifuged, and supernatants were removed. Tissue pellets were washed with PBS and centrifuged again. Tissue pellets were lysed with RIPA buffer containing protease inhibitor and phosphatase inhibitor (Sigma-Aldrich, Cat. P5726). Protein concentration was measured by BCA assays (Cat. 23227, ThermoFisher). The following antibodies were used in western blotting: anti-kidney injury molecule 1 (KIM1) antibody (AF1817, R&D), anti-Lipocalin2/NGAL antibody (ab70287, abcam), anti-phosho-STAT3 antibody (#9145, CST), anti-CTGFantibody (sc-365970, Santa Cruz), anti-TGFb 1,2,3 antibody (MAB1835, R&D), anti-Fibronectin antibody (F3648,Sigma), anti-alpha smooth muscle acting (SMA) antibody (F3777, Sigma), anti-Collagen I antibody (1310-01, SouthernBiotech), anti-Collagen IV antibody (1340-01, SouthernBiotech), anti-alpha Tubulin antibody (#2144, CST).
For all groups, analysis includes measurement of blood urea nitrogen and urinary albumin: creatinine ratios. The analysis also includes renal histopathology (glomerulosclerosis and tubulo-interstitial fibrosis; and analysis of glomerular basement membrane and podocyte ultrastructure. Plasma samples are analyzed for Compound 1 concentration to ensure adequate circulating levels for efficient target engagement. qRT-PCR is performed using RNA from several relevant tissues to examine expression of known transcriptional targets of PPARδ (e.g., PGC1α).
All data are presented as mean±SEM. Statistical significance was determined by Oneway ANOVA with Dunnett's multiple comparison for more than three group comparison and Student's t test for two group comparison.

[4] = target: T1, LXRβ (Homo sapiens, UniProt P55055); assay: activity on nuclear receptor LXRβ
T1 sequence (P55055 1-460): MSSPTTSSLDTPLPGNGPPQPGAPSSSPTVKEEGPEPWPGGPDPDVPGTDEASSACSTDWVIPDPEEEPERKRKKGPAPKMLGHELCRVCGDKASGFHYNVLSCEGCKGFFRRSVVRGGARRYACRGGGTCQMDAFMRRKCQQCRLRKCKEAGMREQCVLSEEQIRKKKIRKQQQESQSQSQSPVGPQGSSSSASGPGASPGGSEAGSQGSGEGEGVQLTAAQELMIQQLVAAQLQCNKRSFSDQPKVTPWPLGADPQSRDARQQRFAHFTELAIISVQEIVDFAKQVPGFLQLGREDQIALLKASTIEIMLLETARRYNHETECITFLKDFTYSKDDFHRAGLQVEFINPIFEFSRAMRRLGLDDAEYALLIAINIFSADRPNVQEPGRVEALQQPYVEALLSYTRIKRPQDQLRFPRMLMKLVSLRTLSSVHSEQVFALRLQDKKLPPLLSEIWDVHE

[5] = 10 mg/kg i.p., compared with vehicle-treated mice
[6] = whole kidneys, western blotting

Cc1cc(OC/C=C(/c2ccc(F)cc2)c2ccc(C#CCN3CCOCC3)cc2)ccc1OCC(=O)O [Compound 1, (E)-[4-[3-(4-Fluorophenyl)-3-[4-[3-(morpholin-4-yl)propynyl]phenyl]allyloxy]-2-methyl-phenoxy]acetic acid]
hRXR activity [1]: did not show any
levels of MCAD, COXIV, TFAM and Parkin proteins and AMPK activation ([2]; 2K1C rat kidneys): remained at the physiological levels
mitochondrial biogenesis and autophagy (PGC1-a, LC3-II, ATG5) ([2]; 2K1C rat kidneys): inhibited similarly in both treated and untreated
BNIP3 protein in the mitochondrial fraction ([2]; 2K1C rat, compared to untreated animals): decreased notably
nuclear amounts of oxidative stress-responsive proteins NRF1 and NRF2 ([2]; 2K1C rat, treated kidneys): below physiological levels
histochemical features of necrosis in clipped kidney ([2]; 2K1C rat, treated vs untreated clipped kidneys): did not exhibit any histochemical features of necrosis
fibrotic lesions in clipped kidney ([2]; 2K1C rat): present only in perivascular areas
oxidative stress in kidneys ([2]; 2K1C rat): attenuated
kidney dysfunction ([3]; 10 mg/kg i.p. once a day from 6 to 17-weeks of age): attenuated
blood urea nitrogen (BUN) ([3]; 10 mg/kg i.p. once a day, at 12 and 17-weeks of age): suppressed the increase
proteinuria ([3]; 10 mg/kg i.p. once a day, at 17-weeks of age (late stage)): suppressed; also recorded: significantly reduced
renal histology ([3]; 10 mg/kg i.p., H&E and Trichrome kidney sections): slightly improved
extent of fibrosis [3, 5]: slightly decreased; also recorded: decreased
necrotic regions in the cortex [3, 5]: decreased
infiltration of inflammatory cells ([3]; 10 mg/kg i.p., microscopic examination of kidney sections): slightly reduced
CTGF expression [3, 6]: attenuated
Collagen I expression [3, 6]: decreased
Collagen IV expression [3, 6]: decreased
NGAL protein level [3, 6]: decreased
alpha-SMA expression [3, 6]: decreased
fibronectin expression [3, 6]: not changed
phosho-Stat3 expression [3, 6]: attenuated
KIM-1 protein level ([3]; whole kidneys, western blotting, vs vehicle): not changed
activity on LXRβ [4]: did not show any
